Legend:
Assay type in all cases: in vivo
Lolium perenne (LOLPE) = experiment: Glasshouse herbicide test, pre- and post-emergence, Lolium perenne; details: 250 g/h, evaluated after 13 days; for LOLPE POST, percentage damage caused to the plant (five point scale): post-emergence; for LOLPE PRE, percentage damage caused to the plant (five point scale): pre-emergence
Procedure: (§1) Seeds of a variety of test species are sown in standard soil in pots (Lolium perenne (LOLPE), Setaria faberi (SETFA), Alopecurus myosuroides (ALOMY), Echinochloa crus-galli (ECHCG), Avena fatua (AVEFA)). After cultivation for one day (pre-emergence) or after 8 days cultivation (post-emergence) under controlled conditions in a glasshouse (at 24/16° C., day/night; 14 hours light; 65% humidity), the plants are sprayed with an aqueous spray solution derived from the formulation of the technical active ingredient in acetone/water (50:50) solution containing 0.5% Tween 20 (polyoxyethelyene sorbitan monolaurate, CAS RN 9005-64-5). Compounds are applied at […]. The test plants are then grown in a glasshouse under controlled conditions in a glasshouse (at 24/16° C., day/night; 14 hours light; 65% humidity) and watered twice daily. After 13 days for pre and post-emergence, the test is evaluated for the percentage damage caused to the plant. The biological activities are shown in the following table on a five point scale (5=80-100%; 4=60-79%; 3=40-59%; 2=20-39%; 1=0-19%).

[1] = tested on: Alopecurus myosuroides (ALOMY); experiment: Glasshouse herbicide test, pre- and post-emergence, Alopecurus myosuroides; details: 250 g/h, evaluated after 13 days; for ALOMY POST, percentage damage caused to the plant (five point scale): post-emergence; for ALOMY PRE, percentage damage caused to the plant (five point scale): pre-emergence
Procedure: as §1

[2] = tested on: Echinochloa crus-galli (ECHCG); experiment: Glasshouse herbicide test, pre- and post-emergence, Echinochloa crus-galli; details: 250 g/h, evaluated after 13 days; for ECHCG POST, percentage damage caused to the plant (five point scale): post-emergence; for ECHCG PRE, percentage damage caused to the plant (five point scale): pre-emergence
Procedure: as §1

Setaria faberi (SETFA) = experiment: Glasshouse herbicide test, pre- and post-emergence, Setaria faberi; details: 250 g/h, evaluated after 13 days; for SETFA POST, percentage damage caused to the plant (five point scale): post-emergence; for SETFA PRE, percentage damage caused to the plant (five point scale): pre-emergence
Procedure: as §1

Avena fatua (AVEFA) = experiment: Glasshouse herbicide test, pre- and post-emergence, Avena fatua; details: 250 g/h, evaluated after 13 days; for AVEFA POST, percentage damage caused to the plant (five point scale): post-emergence; for AVEFA PRE, percentage damage caused to the plant (five point scale): pre-emergence
Procedure: as §1

CC#Cc1ccc(C2=C(OC(=O)C(C)(C)C)[C@@H]3[C@H](C2=O)[C@@H]2O[C@H]3C[C@@H]2COC)c(OC)c1 (racemic) [Compound 1.26]
5 (5=80-100%): LOLPE POST, percentage damage caused to the plant (five point scale) (Lolium perenne (LOLPE)) | LOLPE PRE, percentage damage caused to the plant (five point scale) (Lolium perenne (LOLPE)) | ALOMY POST, percentage damage caused to the plant (five point scale) [1] | ALOMY PRE, percentage damage caused to the plant (five point scale) [1] | ECHCG POST, percentage damage caused to the plant (five point scale) [2] | ECHCG PRE, percentage damage caused to the plant (five point scale) [2] | SETFA POST, percentage damage caused to the plant (five point scale) (Setaria faberi (SETFA)) | SETFA PRE, percentage damage caused to the plant (five point scale) (Setaria faberi (SETFA)) | AVEFA POST, percentage damage caused to the plant (five point scale) (Avena fatua (AVEFA)) | AVEFA PRE, percentage damage caused to the plant (five point scale) (Avena fatua (AVEFA))

CC#Cc1ccc(C2=C(OC(=O)C(C)C)[C@@H]3[C@H](C2=O)[C@@H]2O[C@H]3C[C@@H]2COC)c(OC)c1 (racemic) [Compound 1.27]
5 (5=80-100%): LOLPE POST, percentage damage caused to the plant (five point scale) (Lolium perenne (LOLPE)) | LOLPE PRE, percentage damage caused to the plant (five point scale) (Lolium perenne (LOLPE)) | ALOMY POST, percentage damage caused to the plant (five point scale) [1] | ALOMY PRE, percentage damage caused to the plant (five point scale) [1] | ECHCG POST, percentage damage caused to the plant (five point scale) [2] | ECHCG PRE, percentage damage caused to the plant (five point scale) [2] | SETFA POST, percentage damage caused to the plant (five point scale) (Setaria faberi (SETFA)) | SETFA PRE, percentage damage caused to the plant (five point scale) (Setaria faberi (SETFA)) | AVEFA POST, percentage damage caused to the plant (five point scale) (Avena fatua (AVEFA)) | AVEFA PRE, percentage damage caused to the plant (five point scale) (Avena fatua (AVEFA))

CC#Cc1ccc(C2=C(OC(=O)OC)[C@@H]3[C@H](C2=O)[C@@H]2O[C@H]3C[C@@H]2COC)c(OC)c1 (racemic) [Compound 1.28]
5 (5=80-100%): LOLPE POST, percentage damage caused to the plant (five point scale) (Lolium perenne (LOLPE)) | LOLPE PRE, percentage damage caused to the plant (five point scale) (Lolium perenne (LOLPE)) | ALOMY POST, percentage damage caused to the plant (five point scale) [1] | ALOMY PRE, percentage damage caused to the plant (five point scale) [1] | ECHCG POST, percentage damage caused to the plant (five point scale) [2] | ECHCG PRE, percentage damage caused to the plant (five point scale) [2] | SETFA POST, percentage damage caused to the plant (five point scale) (Setaria faberi (SETFA)) | SETFA PRE, percentage damage caused to the plant (five point scale) (Setaria faberi (SETFA)) | AVEFA POST, percentage damage caused to the plant (five point scale) (Avena fatua (AVEFA)) | AVEFA PRE, percentage damage caused to the plant (five point scale) (Avena fatua (AVEFA))

CC#Cc1ccc(C2=C(OC(C)=O)[C@@H]3[C@H](C2=O)[C@@H]2O[C@H]3C[C@@H]2COC)c(OC)c1 (racemic) [Compound 1.29]
5 (5=80-100%): LOLPE POST, percentage damage caused to the plant (five point scale) (Lolium perenne (LOLPE)) | LOLPE PRE, percentage damage caused to the plant (five point scale) (Lolium perenne (LOLPE)) | ALOMY POST, percentage damage caused to the plant (five point scale) [1] | ALOMY PRE, percentage damage caused to the plant (five point scale) [1] | ECHCG POST, percentage damage caused to the plant (five point scale) [2] | ECHCG PRE, percentage damage caused to the plant (five point scale) [2] | SETFA POST, percentage damage caused to the plant (five point scale) (Setaria faberi (SETFA)) | SETFA PRE, percentage damage caused to the plant (five point scale) (Setaria faberi (SETFA)) | AVEFA POST, percentage damage caused to the plant (five point scale) (Avena fatua (AVEFA)) | AVEFA PRE, percentage damage caused to the plant (five point scale) (Avena fatua (AVEFA))

CC#Cc1ccc(C2C(=O)[C@@H]3[C@H](C2=O)[C@H]2CC[C@@H]3O2)c(OCC)c1 (mixture of isomers) [Compound 1.30]
5 (5=80-100%): LOLPE POST, percentage damage caused to the plant (five point scale) (Lolium perenne (LOLPE)) | LOLPE PRE, percentage damage caused to the plant (five point scale) (Lolium perenne (LOLPE)) | ALOMY POST, percentage damage caused to the plant (five point scale) [1] | ALOMY PRE, percentage damage caused to the plant (five point scale) [1] | ECHCG POST, percentage damage caused to the plant (five point scale) [2] | ECHCG PRE, percentage damage caused to the plant (five point scale) [2] | SETFA PRE, percentage damage caused to the plant (five point scale) (Setaria faberi (SETFA)) | AVEFA POST, percentage damage caused to the plant (five point scale) (Avena fatua (AVEFA)) | AVEFA PRE, percentage damage caused to the plant (five point scale) (Avena fatua (AVEFA))
